# From patent US8574563B2 (Bristol-Myers Squibb Company, priority 2006, dated 2013)
# pEC50: −log10 of the molar value.
# System: HCV 1b-377-neo replicon cells
# Experiment: HCV replicon assay, HCV 1b-377-neo replicon cells (1b FRET)
# Assay type: cell-based, Hepatitis C virus genotype 1b
# Details: Hepatitis C virus, HCV 1b-377-neo replicon cells; HCV 1b genotype; read-out: EC50 range against HCV 1b (Table 2, Range)
# Method in brief: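 Compounds tested in HCV genotype 1b-377-neo replicon cells with a FRET read-out. Cells resistant to a reference NS5A inhibitor through a Y2065H NS5A mutation were run alongside wild-type cells.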
row,Compound,pEC50
1,"C[C@@H](C(=O)N1CCC[C@H]1c1ncc(-c2ccc(-c3ccc(-c4cnc([C@@H]5CCCN5C(=O)[C@H](C)N(C)Cc5ccccc5)[nH]4)cc3)cc2)[nH]1)N(C)Cc1ccccc1 [Example 24-4f, (2S,2′S)-1,1′-(4,4′-biphenyldiylbis(1H-imidazole-5,2-diyl(2S)-2,1-pyrrolidinediyl))bis(N-benzyl-N-methyl-1-oxo-2-propanamine)]",6.00 to 7.00
2,"Cc1nc([C@@H]2CCCN2C(=O)[C@@H](c2ccccc2)N2CCCCC2)[nH]c1-c1ccc(-c2ccc(-c3nc([C@@H]4CCCN4C(=O)[C@@H](c4ccccc4)N4CCCCC4)[nH]c3C)cc2)cc1 [Example E5i, 1,1′-(4,4′-biphenyldiylbis((4-methyl-1H-imidazole-5,2-diyl)(2S)-2,1-pyrrolidinediyl((1R)-2-oxo-1-phenyl-2,1-ethanediyl)))dipiperidine]",9.00 to 12.00
3,"COC(=O)N[C@@H](C(=O)N1CCC[C@H]1c1ncc(-c2ccc(-c3ccc(-c4cnc([C@@H]5CCCN5C(=O)C[C@@H]5CCCN5C(=O)OC(C)(C)C)[nH]4)cc3)cc2)[nH]1)c1ccccc1 [Example 84-18, tert-butyl (2S)-2-(2-((2S)-2-(5-(4′-(2-((2S)-1-((2R)-2-((methoxycarbonyl)amino)-2-phenylacetyl)-2-pyrrolidinyl)-1H-imidazol-5-yl)-4-biphenylyl)-1H-imidazol-2-yl)-1-pyrrolidinyl)-2-oxoethyl)-1-pyrrolidinecarboxylate]",7.00 to 9.00
4,COC(=O)N[C@H](C(=O)N1CCC[C@H]1c1ncc(-c2ccc(-c3ccc(-c4cnc([C@@H]5CCCN5C(=O)[C@@H](NC(=O)OC)C(C)C)[nH]4)cc3CN(C)C)cc2)[nH]1)C(C)C [Example M120],6.00 to 7.00
5,"CCN(CC)[C@@H](C(=O)N1C[C@H](F)C[C@H]1c1ncc(-c2ccc(-c3ccc(-c4cnc([C@@H]5C[C@@H](F)CN5C(=O)[C@@H](c5ccccc5)N(CC)CC)[nH]4)cc3)cc2)[nH]1)c1ccccc1 [JG-17, (1R,1′R)-2,2′-(4,4′-biphenyldiylbis(1H-imidazole-5,2-diyl((2S,4R)-4-fluoro-2,1-pyrrolidinediyl)))bis(N,N-diethyl-2-oxo-1-phenylethanamine)]",9.00 to 12.00
6,"CN(C)[C@@H](C(=O)N1CCC[C@H]1c1ncc(-c2ccc(-c3ccc(-c4cnc([C@@H]5CCCN5C(=O)[C@@H](c5ccccc5)N5CCCCC5)[nH]4)cc3)cc2)[nH]1)c1ccccc1Cl [Example 28-4, (1R)-1-(2-chlorophenyl)-N,N-dimethyl-2-oxo-2-((2S)-2-(5-(4′-(2-((2S)-1-((2R)-2-phenyl-2-(1-piperidinyl)acetyl)-2-pyrrolidinyl)-1H-imidazol-5-yl)-4-biphenylyl)-1H-imidazol-2-yl)-1-pyrrolidinyl)ethanamine]",9.00 to 12.00
7,"COC(=O)N[C@H](C(=O)N1CCC[C@H]1c1nc(-c2ccc(-c3ccc(-c4cnc([C@@H]5CCCN5C(=O)[C@@H](NC(=O)OC)C5CCOCC5)[nH]4)cc3)cc2)c[nH]1)C(C)C [Example F58, methyl ((1S)-1-(((2S)-2-(4-(4′-(2-((2S)-1-((2S)-2-((methoxycarbonyl)amino)-2-(tetrahydro-2H-pyran-4-yl)acetyl)-2-pyrrolidinyl)-1H-imidazol-5-yl)-4-biphenylyl)-1H-imidazol-2-yl)-1-pyrrolidinyl)carbonyl)-2-methylpropyl)carbamate]",9.00 to 12.00
8,"COC(=O)N(C)[C@H](C(=O)N1CCC[C@H]1c1ncc(-c2ccc(-c3ccc(-c4cnc([C@@H]5CCCN5C(=O)[C@H](C(C)C)N(C)C(=O)OC)[nH]4)cc3)cc2)[nH]1)C(C)C [Example M11, methyl ((1S)-1-(((2S)-2-(5-(4′-(2-((2S)-1-((2S)-2-((methoxycarbonyl)(methyl)amino)-3-methylbutanoyl)-2-pyrrolidinyl)-1H-imidazol-5-yl)-4-biphenylyl)-1H-imidazol-2-yl)-1-pyrrolidinyl)carbonyl)-2-methylpropyl)methyl-carbamate]",7.00 to 9.00
